Measured values: US20250002507A1, “7,8-DIHYDRO-5H-1,6-NAPHTHYRIDINE DERIVATIVES AS POSITIVE ALLOSTERIC MODULATORS OF THE MUSCARINIC ACETYLCHOLINE RECEPTOR M4 FOR TREATING NEUROLOGICAL AND PSYCHIATRIC DISORDERS” (Vanderbilt University, priority 2021, published 2025)

Target: T1, Human M4 (Homo sapiens, UniProt P08173)
T1 construct: expressed in transfected cells
T1 sequence (P08173 1-479): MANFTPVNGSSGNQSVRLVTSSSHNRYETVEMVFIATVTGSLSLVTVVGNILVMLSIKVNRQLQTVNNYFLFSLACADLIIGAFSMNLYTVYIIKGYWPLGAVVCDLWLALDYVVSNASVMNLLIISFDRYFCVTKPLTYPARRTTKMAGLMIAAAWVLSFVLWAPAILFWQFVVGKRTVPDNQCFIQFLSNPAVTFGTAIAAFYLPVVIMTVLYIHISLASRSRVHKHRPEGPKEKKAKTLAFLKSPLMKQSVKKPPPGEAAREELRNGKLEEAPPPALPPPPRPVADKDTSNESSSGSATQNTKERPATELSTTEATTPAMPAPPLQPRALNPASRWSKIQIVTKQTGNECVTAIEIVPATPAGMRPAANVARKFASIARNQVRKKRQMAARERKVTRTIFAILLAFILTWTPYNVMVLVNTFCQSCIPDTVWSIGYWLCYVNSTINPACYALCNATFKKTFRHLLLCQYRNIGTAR
Assay: mAChR M4 cell-based functional assay (calcium flux, potentiation of EC20 acetylcholine response), hM4-Gqi5 CHO-K1 cells
Settings: for Emax / Emax at 30 µM: CHO-K1; for EC50: hM4-Gqi5 CHO-K1 cells, calcium flux, PAM of EC20 acetylcholine, read-out: Human M4 EC50; for Emax at 30 µM: % ACh maximum at 30 μM, human M4, read-out: Emax
Experimental: Human and rat M4 cDNAs, along with the chimeric G protein Gqi5, were transfected into Chinese hamster ovary (CHO-K1) cells purchased from the American Type Culture Collection using Lipofectamine2000. hM4-Gqi5 cells were grown in Ham's F-12 medium containing 10% heat-inactivated fetal bovine serum (FBS), 20 mM HEPES, 50 μg/mL G418 sulfate, and 500 μg/mL Hygromycin B. rM4-Gqi5 cells were grown in DMEM containing 10% heat-inactivated FBS, 20 mM HEPES, 400 μg/mL G418 sulfate, and 500 μg/mL Hygromycin B.
For high throughput measurement of agonist-evoked increases in intracellular calcium, CHO-K1 cells stably expressing muscarinic receptors were plated in growth medium lacking G418 and hygromycin at 15,000 cells/20 μL/well in Greiner 384-well black-walled, tissue culture (TC)-treated, clear-bottom plates (VWR). Cells were incubated overnight at 37° C. and 5% CO2. The next day, cells were washed using an ELX 405 (BioTek) with assay buffer; the final volume was then aspirated to 20 μL. Next, 20 μL of a 2.3 μM stock of Fluo-4/acetoxymethyl ester (Invitrogen, Carlsbad, CA), prepared as a 2.3 mM stock in DMSO and mixed in a 1:1 ratio with 10% (w/v) Pluronic F-127 and diluted in assay buffer, was added to the wells and the cell plates were incubated for 50 min at 37° C. and 5% CO2. Dye was removed by washing with the ELX 405 and the final volume was aspirated to 20 μL. Compound master plates were formatted in an 11 point concentration-response curve (CRC) format (1:3 dilutions) in 100% DMSO with a starting concentration of 10 mM using a BRAVO liquid handler (Agilent). Test compound CRCs were then transferred to daughter plates (240 nL) using the Echo acoustic plate reformatter (Labcyte, Sunnyvale, CA) and then diluted into assay buffer (40 μL) to a 2× stock using a Thermo Fisher Combi (Thermo Fisher Scientific, Waltham, MA).
Calcium flux was measured using the Functional Drug Screening System (FDSS) 6000 or 7000 (Hamamatsu Corporation, Tokyo, Japan) as an increase in the fluorescent static ratio. Compounds were applied to cells (20 μL, 2×) using the automated system of the FDSS at 2-4 seconds into the protocol and the data were collected at 1 Hz. At 144 seconds, 10 μL of an EC20 concentration of the muscarinic receptor agonist acetylcholine was added (5×), followed by the addition of 12 μL of an EC80 concentration of acetylcholine at the 230 second time point (5×). Agonist activity was analyzed as a concentration-dependent increase in calcium mobilization upon compound addition. Positive allosteric modulator activity was analyzed as a concentration-dependent increase in the EC20 acetylcholine response. Antagonist activity was analyzed as a concentration-dependent decrease in the EC80 acetylcholine response. Concentration-response curves were generated using a four-parameter logistical equation in XLFit curve fitting software (IDBS, Bridgewater, NJ) for Excel (Microsoft, Redmond, WA) or Prism (GraphPad Software, Inc., San Diego, CA).
Compounds were synthesized as described above. Activity (EC50 and Emax) was determined in the mAChR M4 cell-based functional assay as described above and the data are shown in Tables 2-4. The compound number corresponds to the compound numbers used in Table 1.

Row | Emax | EC50 | Emax at 30 µM | SMILES
1 |  | 628 nM | 102% | Cc1c(N2CCc3ncc(-c4ccn(C)n4)cc3C2)nn2cnnc2c1C [Compound 2, 6-(7,8-dimethyl-[1,2,4]triazolo[4,3-b]pyridazin-6-yl)-3-(1-methylpyrazol-3-yl)-7,8-dihydro-5H-1,6-naphthyridine]
2 | 69% | 4510 nM |  | Cc1c(N2CCc3ncc(C#N)cc3C2)nn2cnnc2c1C [Compound 3, 6-(7,8-Dimethyl-[1,2,4]triazolo[4,3-b]pyridazin-6-yl)-7,8-dihydro-5H-1,6-naphthyridine-3-carbonitrile]
3 |  | 94.3 nM | 79% | Cc1c(N2CCc3ncc(-c4cncs4)cc3C2)nn2cnnc2c1C [Compound 9, 5-[6-(7,8-dimethyl-[1,2,4]triazolo[4,3-b]pyridazin-6-yl)-7,8-dihydro-5H-1,6-naphthyridin-3-yl]thiazole]
4 |  | 212 nM | 78% | Cc1noc(C)c1-c1cnc2c(c1)CN(c1nn3cnnc3c(C)c1C)CC2 [Compound 10, 4-[6-(7,8-dimethyl-[1,2,4]triazolo[4,3-b]pyridazin-6-yl)-7,8-dihydro-5H-1,6-naphthyridin-3-yl]-3,5-dimethyl-isoxazole]
5 | 62% | 285 nM |  | Cc1c(N2CCc3ncc(-c4ccnn4C(C)C)cc3C2)nn2cnnc2c1C [Compound 13, 6-(7,8-Dimethyl-[1,2,4]triazolo[4,3-b]pyridazin-6-yl)-3-(2-isopropylpyrazol-3-yl)-7,8-dihydro-5H-1,6-naphthyridine]
6 |  | 49.3 nM | 106% | Cc1c(N2CCc3ncc(-c4ccns4)cc3C2)nn2cnnc2c1C [Compound 19, 5-[6-(7,8-dimethyl-[1,2,4]triazolo[4,3-b]pyridazin-6-yl)-7,8-dihydro-5H-1,6-naphthyridin-3-yl]isothiazole]
7 |  | 162 nM | 82% | Cc1c(N2CCc3ncc(-c4cnn(CC5CC5)c4)cc3C2)nn2cnnc2c1C [Compound 21, 3-[1-(cyclopropylmethyl)pyrazol-4-yl]-6-(7,8-dimethyl-[1,2,4]triazolo[4,3-b]pyridazin-6-yl)-7,8-dihydro-5H-1,6-naphthyridine]
8 |  | 146 nM | 93% | Cc1nn(C)cc1-c1cnc2c(c1)CN(c1nn3cnnc3c(C)c1C)CC2 [Compound 22, 3-(1,3-dimethylpyrazol-4-yl)-6-(7,8-dimethyl-[1,2,4]triazolo[4,3-b]pyridazin-6-yl)-7,8-dihydro-5H-1,6-naphthyridine]
9 |  | 149 nM | 94% | Cc1nn(C)c(C)c1-c1cnc2c(c1)CN(c1nn3cnnc3c(C)c1C)CC2 [Compound 23, 6-(7,8-dimethyl-[1,2,4]triazolo[4,3-b]pyridazin-6-yl)-3-(1,3,5-trimethylpyrazol-4-yl)-7,8-dihydro-5H-1,6-naphthyridine]

The next lines start with the compound.

Row | SMILES | Emax | EC50 | Emax at 30 µM
10 | Cc1c(N2CCc3ncccc3C2)nn2cnnc2c1C [Compound 1, 6-(7,8-dimethyl-[1,2,4]triazolo[4,3-b]pyridazin-6-yl)-7,8-dihydro-5H-1,6-naphthyridine] | 97% | 3970 nM | 
11 | Cc1c(N2CCc3ncc(Oc4ccc(F)cc4)cc3C2)nn2cnnc2c1C [Compound 4, 6-(7,8-dimethyl-[1,2,4]triazolo[4,3-b]pyridazin-6-yl)-3-(4-fluorophenoxy)-7,8-dihydro-5H-1,6-naphthyridine] |  | 322 nM | 87%
12 | Cc1cnc2c(c1)CN(c1nn3cnnc3c(C)c1C)CC2 [Compound 5, 6-(7,8-Dimethyl-[1,2,4]triazolo[4,3-b]pyridazin-6-yl)-3-methyl-7,8-dihydro-5H-1,6-naphthyridine] | 95% | 230 nM | 
13 | Cc1c(N2CCc3ncc(Oc4ccc(OC(F)(F)F)c(F)c4)cc3C2)nn2cnnc2c1C [Compound 6, 6-(7,8-dimethyl-[1,2,4]triazolo[4,3-b]pyridazin-6-yl)-3-[3-fluoro-4-(trifluoromethoxy)phenoxy]-7,8-dihydro-5H-1,6-naphthyridine] |  | 3620 nM | 33%
14 | Cc1c(N2CCc3ncc(Oc4ccc5c(c4)OCCO5)cc3C2)nn2cnnc2c1C [Compound 7, 3-(2,3-dihydro-1,4-benzodioxin-6-yloxy)-6-(7,8-dimethyl-[1,2,4]triazolo[4,3-b]pyridazin-6-yl)-7,8-dihydro-5H-1,6-naphthyridine] |  | 295 nM | 63%
15 | Cc1c(N2CCc3ncc(Oc4ccc5c(cnn5C)c4)cc3C2)nn2cnnc2c1C [Compound 8, 6-(7,8-dimethyl-[1,2,4]triazolo[4,3-b]pyridazin-6-yl)-3-(1-methylindazol-5-yl)oxy-7,8-dihydro-5H-1,6-naphthyridine] |  | 200 nM | 68%
16 | COc1ccc(Oc2cnc3c(c2)CN(c2nn4cnnc4c(C)c2C)CC3)cc1Cl [Compound 11, 3-(3-chloro-4-methoxy-phenoxy)-6-(7,8-dimethyl-[1,2,4]triazolo[4,3-b]pyridazin-6-yl)-7,8-dihydro-5H-1,6-naphthyridine] |  | 1040 nM | 57%
17 | COc1ccc(Oc2cnc3c(c2)CN(c2nn4cnnc4c(C)c2C)CC3)cc1 [Compound 12, 6-(7,8-Dimethyl-[1,2,4]triazolo[4,3-b]pyridazin-6-yl)-3-(4-methoxyphenoxy)-7,8-dihydro-5H-1,6-naphthyridine] |  | 191 nM | 76%
18 | Cc1c(N2CCc3ncc(NC(=O)C4CC4)cc3C2)nn2cnnc2c1C [Compound 14, N-[6-(7,8-dimethyl-[1,2,4]triazolo[4,3-b]pyridazin-6-yl)-7,8-dihydro-5H-1,6-naphthyridin-3-yl]cyclopropanecarboxamide] |  | 1150 nM | 76%
19 | Cc1c(N2CCc3ncc(NC(=O)C4COC4)cc3C2)nn2cnnc2c1C [Compound 15, N-[6-(7,8-Dimethyl-[1,2,4]triazolo[4,3-b]pyridazin-6-yl)-7,8-dihydro-5H-1,6-naphthyridin-3-yl]oxetane-3-carboxamide] | 68% | 5870 nM | 
20 | Cc1c(N2CCc3ncc(N4CCCCC4)cc3C2)nn2cnnc2c1C [Compound 16, 6-(7,8-dimethyl-[1,2,4]triazolo[4,3-b]pyridazin-6-yl)-3-(1-piperidyl)-7,8-dihydro-5H-1,6-naphthyridine] |  | 789 nM | 89%
21 | Cc1c(N2CCc3ncc(NCc4ccc(C(C)(C)O)cc4)cc3C2)nn2cnnc2c1C [Compound 17, 2-[4-[[[6-(7,8-dimethyl-[1,2,4]triazolo[4,3-b]pyridazin-6-yl)-7,8-dihydro-5H-1,6-naphthyridin-3-yl]amino]methyl]phenyl]propan-2-ol] |  | 936 nM | 66%
22 | Cc1c(N2CCc3ncc(NCc4cccc(F)c4)cc3C2)nn2cnnc2c1C [Compound 18, 6-(7,8-dimethyl-[1,2,4]triazolo[4,3-b]pyridazin-6-yl)-N-[(3-fluorophenyl)methyl]-7,8-dihydro-5H-1,6-naphthyridin-3-amine] |  | 798 nM | 47%
23 | Cc1c(N2CCc3ncc(-c4cnn(C5CCCCC5)c4)cc3C2)nn2cnnc2c1C [Compound 20, 3-(1-cyclohexylpyrazol-4-yl)-6-(7,8-dimethyl-[1,2,4]triazolo[4,3-b]pyridazin-6-yl)-7,8-dihydro-5H-1,6-naphthyridine] |  | 331 nM | 71%
